Experimental data reported in PMC4999502, “A rheostat mechanism governs the bifurcation of carbon flux in mycobacteria” (Nature Communications, 2016).

How the values were obtained:
[1] = biological target: T1, M. smegmatis ICD (MsmICD) (Mycolicibacterium smegmatis, UniProt A0QSZ3); assay: X-ray crystal structure, […] Å; type: binding; details: Mn2+ bound; crystals pre-incubated with glyoxylate, MnCl2, isocitrate and NADP+; pH 7.5
T1 construct: gene MSMEG_1654; full ORF, 743 AA; pET-28a(+), C-terminal TEV site and 6-His tag, tag removed by TEV; E. coli BL21(DE3); text says mycobacterial ICD2 forms dimers in solution

[2] = biological target: T1, M. smegmatis ICD (MsmICD); assay: isothermal titration calorimetry; type: binding; details: pH 7.5, 25 °C, 10 mM Tris, 10 mM EDTA, 2.5 mM MgCl2; putative allosteric activator; 1:1 single-site fit
Source text: isothermal titration calorimetry on M. smegmatis ICD (MsmICD)

Compound | X-ray crystal structure, 2.8 Å [1] | K (M^-1) [2]
O=C(O)C[C@H](C(=O)O)[C@@H](O)C(=O)O (racemic) [isocitrate] | We determined the structure of MsmICD bound to isocitrate and manganese | –
O=CC(=O)O [glyoxylate] | – | 1.10e^6±4.21e^5
